Paper PMC9841593 (ACS Medicinal Chemistry Letters, 2022)

Biological target: influenza PAN endonuclease (Influenza A virus, UniProt C3W5S0, DEL52-64/INS51G)
Format: biochemical, influenza A/California/04/2009(H1N1)

In the case of `NC(=O)c1[nH]c(Br)cc(=O)c1O` [Compound 3], the “inhibition of PAN (in words)” value is reported as “little difference in activity when compared with compounds 1 or 2”.
In the case of `O=c1cc(Br)[nH]c(-c2nnn[nH]2)c1O` [Compound 4], the “inhibition of PAN (in words)” value is reported as “activity comparable to that of the parent structure”.
For `CONC(=O)c1[nH]c(Br)cc(=O)c1O` [Compound 5], the “inhibition of PAN (in words)” value was “moderate inhibition”.
In the case of `O=c1[nH]c(-c2[nH]c(Br)cc(=O)c2O)no1` [Compound 7], the “inhibition of PAN (in words)” value is reported as “most potent IC50 value of the evaluated compounds”.
In the case of `Cc1nc(-c2[nH]c(Br)cc(=O)c2O)no1` [Compound 8], the “inhibition of PAN (in words)” value is reported as “good inhibition”.
With `N#Cc1[nH]c(Br)cc(=O)c1O` [Compound 9] the “inhibition of PAN (in words)” value was “relatively poor inhibition”.
With `O=c1cc(Br)[nH]c(C2=NCCN2)c1O` [Compound 10] the “inhibition of PAN (in words)” value was “markedly poorer inhibition than the parent MBI”.
For `O=c1cc(Br)[nH]c(C2=NCCO2)c1O` [Compound 11], the “inhibition of PAN (in words)” value was “markedly poorer inhibition than the parent MBI”.
